Data published in US20240262826A1, “WILD TYPE KIT INHIBITORS” (Blueprint Medicines Corporation, priority 2022, published 2024).

Legend:
[1] = molecular target: human P-glycoprotein (P-gp, MDR1) (Homo sapiens (Human), UniProt P08183); assay: MDCK-MDR1 cell monolayer drug transport assay (P-gp efflux ratio); type: in vitro ADME; settings: pH 7.4, MDCK-MDR1 cells, 1 uM concentration of compound, read-out: Pgp Efflux Ratio, 1 uM
Procedure: The potential for compounds prepared according to the examples to be substrates of P-gp was evaluated using in vitro on Multidrug Resistance Mutation 1-Mardin-Darby Canine Kidney (MDCK-MDR1)) (Mardin-Darby Canine Kidney) cell monolayers overexpressing P-gp grown on permeable supports.
Preparation for cell seeding: MDCK-MDR1 cell culture medium consisting of Dulbecco's Modified Eagle's Medium (DMEM) with high glucose and L-glutamine supplemented with: 10% FBS, 0.1 mg/mL of streptomycin, 0.6 μg/mL of Kanamycin sulfate and 100 units of penicillin was prepared. 50 μL of culture medium was added to each well of the Transwell insert. The Transwell insert was removed from the reservoir and 25 mL of culture medium was added. After incubation at 37° C., 5% CO2 for 1 hour, the plates were ready for cell seeding. The cells were cultivated in T-75 flasks in a cell culture incubator set at 37° C., 5% CO2, 95% relative humidity until they reached 80-90% confluence before detaching and splitting. The cultivated cells were rinsed in T-75 flasks with 5 mL PBS and aspirated off, and then 1.5 mL trypsin/EDTA was added and incubated at 37° C. for approximately 5 to 10 minutes or until the cells detach and float. The trypsin/EDTA was inactived by adding excess serum containing medium. The cell suspension was transferred to a conical tube and the cells pelleted by centrifugation at 120×g for 10 minutes. The cells were resuspended in seeding medium at a density of 1.56×10^6 cells/mL. This cell concentration was used to seed 5.45×10^5 cells/cm^2.
Seeding and feeding of MDCK-MDR1 cells into transwell plates: 50 μL of the above cell suspension was added to each well of a previously prepared Transwell plate and the plate was incubated for 4-8 days, replacing the medium every other day beginning no sooner than 48 hours after initial plating. The medium must be replaced on the day before conducting the experiment, and the procedure for medium changes was carried out as follows. The plate was removed from the incubator and placed in a hood. The medium was aspirated from a reservoir and each Transwell was inserted. 100 μL of culture medium was added to each well of the Transwell inserts and 25 mL of culture medium to reservoir tray. The plate was returned to the incubator.
Assessment of cell monolayer integrity: When the 4-day cultured MDCK-MDR1 cells reached confluence and were differentiated, the medium was removed from the reservoir and Transwell inserts. 100 μL of prewarmed culture medium was added to each transwell insert and 25 mL was added to the reservoir tray. The electrical resistance across the monolayer was measured using a Millicell Epithelial Volt-Ohm measuring system. The electrical resistance for each well was measured and then the plate was returned to the incubator. TEER values were calculated using this formula: TEER measurement (ohms)×Area of membrane (cm2)=TEER value (ohm cm2). Any monolayer with a TEER value <42 ohms·cm2, indicating poor monolayer formation, was discarded.
Performing the drug transport assay: The MDCK-MDR1 plate was removed from the incubator and the monolayer was washed, exchanging the volume two times using pre-warmed HBSS (Hank's balanced salt solution) (10 mM HEPES, pH 7.4). The plate was then incubated at 37° C. for 30 minutes. A 1 μM compound working solution was prepared as follows: Added […] of stock solution (10 mM in DMSO) of test compound and control compounds (Metoprolol, Prazosin and Imatinib) in one 96 well plate, then added 98 μL of DMSO into the same well to obtain 0.2 mM stock solutions (note a stock solution was further diluted 1:10 for eventually making a 0.1 uM compound working solution). Transfered 3 μL of 0.2 mM solution into 597 μL of transport buffer in one 96 well plate to prepare the 1 μM compound working solution. The plate was shaken at 1000 rpm for 10 min.

wild type c-kit = wild type c-kit (Homo sapiens (Human), UniProt P10721); assay: PathScan phospho c-kit (Tyr719) sandwich ELISA in SCF-stimulated M-07e cells (pKIT assay); type: cell-based; settings: ELISA assay (values not marked *)
wild type c-kit, sequence (P10721 26-976): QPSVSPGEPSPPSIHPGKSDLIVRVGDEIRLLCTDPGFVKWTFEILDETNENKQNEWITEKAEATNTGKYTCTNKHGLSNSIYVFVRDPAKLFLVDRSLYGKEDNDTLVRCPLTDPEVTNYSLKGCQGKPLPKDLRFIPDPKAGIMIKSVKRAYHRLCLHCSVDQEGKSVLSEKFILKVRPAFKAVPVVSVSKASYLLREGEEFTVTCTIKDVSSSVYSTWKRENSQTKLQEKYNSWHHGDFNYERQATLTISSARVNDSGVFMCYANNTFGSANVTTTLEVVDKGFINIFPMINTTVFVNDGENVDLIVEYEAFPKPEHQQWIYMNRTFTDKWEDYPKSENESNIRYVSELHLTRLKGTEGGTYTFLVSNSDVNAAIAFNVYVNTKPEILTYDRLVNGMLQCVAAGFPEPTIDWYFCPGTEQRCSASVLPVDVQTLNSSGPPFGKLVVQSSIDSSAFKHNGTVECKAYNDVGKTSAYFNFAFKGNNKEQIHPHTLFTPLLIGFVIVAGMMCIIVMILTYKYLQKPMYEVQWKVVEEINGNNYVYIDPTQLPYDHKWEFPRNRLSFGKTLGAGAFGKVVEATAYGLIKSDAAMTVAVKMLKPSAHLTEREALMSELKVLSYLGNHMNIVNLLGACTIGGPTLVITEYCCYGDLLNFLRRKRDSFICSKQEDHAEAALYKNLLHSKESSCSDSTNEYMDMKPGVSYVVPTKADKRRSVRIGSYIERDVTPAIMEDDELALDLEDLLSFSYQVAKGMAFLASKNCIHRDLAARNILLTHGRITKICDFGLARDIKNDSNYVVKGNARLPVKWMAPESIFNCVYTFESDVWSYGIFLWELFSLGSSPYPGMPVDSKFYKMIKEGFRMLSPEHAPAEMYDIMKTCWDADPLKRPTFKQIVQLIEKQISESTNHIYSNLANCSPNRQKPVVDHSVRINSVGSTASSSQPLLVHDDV
Method in brief: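 Tyr719-phosphorylated c-kit was measured by colorimetric (TMB) sandwich ELISA in lysates of M-07e cells. Cells were starved 4 h without serum or GM-CSF, dosed 60 min at 37 °C with compound (8 points, duplicate, 0.25% DMSO), and stimulated 10 min with human SCF (500 ng/mL as added). IC50 values came from 4-parameter logistic regression.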

human P-glycoprotein (P-gp, MDR1), sequence (P08183 whole entry): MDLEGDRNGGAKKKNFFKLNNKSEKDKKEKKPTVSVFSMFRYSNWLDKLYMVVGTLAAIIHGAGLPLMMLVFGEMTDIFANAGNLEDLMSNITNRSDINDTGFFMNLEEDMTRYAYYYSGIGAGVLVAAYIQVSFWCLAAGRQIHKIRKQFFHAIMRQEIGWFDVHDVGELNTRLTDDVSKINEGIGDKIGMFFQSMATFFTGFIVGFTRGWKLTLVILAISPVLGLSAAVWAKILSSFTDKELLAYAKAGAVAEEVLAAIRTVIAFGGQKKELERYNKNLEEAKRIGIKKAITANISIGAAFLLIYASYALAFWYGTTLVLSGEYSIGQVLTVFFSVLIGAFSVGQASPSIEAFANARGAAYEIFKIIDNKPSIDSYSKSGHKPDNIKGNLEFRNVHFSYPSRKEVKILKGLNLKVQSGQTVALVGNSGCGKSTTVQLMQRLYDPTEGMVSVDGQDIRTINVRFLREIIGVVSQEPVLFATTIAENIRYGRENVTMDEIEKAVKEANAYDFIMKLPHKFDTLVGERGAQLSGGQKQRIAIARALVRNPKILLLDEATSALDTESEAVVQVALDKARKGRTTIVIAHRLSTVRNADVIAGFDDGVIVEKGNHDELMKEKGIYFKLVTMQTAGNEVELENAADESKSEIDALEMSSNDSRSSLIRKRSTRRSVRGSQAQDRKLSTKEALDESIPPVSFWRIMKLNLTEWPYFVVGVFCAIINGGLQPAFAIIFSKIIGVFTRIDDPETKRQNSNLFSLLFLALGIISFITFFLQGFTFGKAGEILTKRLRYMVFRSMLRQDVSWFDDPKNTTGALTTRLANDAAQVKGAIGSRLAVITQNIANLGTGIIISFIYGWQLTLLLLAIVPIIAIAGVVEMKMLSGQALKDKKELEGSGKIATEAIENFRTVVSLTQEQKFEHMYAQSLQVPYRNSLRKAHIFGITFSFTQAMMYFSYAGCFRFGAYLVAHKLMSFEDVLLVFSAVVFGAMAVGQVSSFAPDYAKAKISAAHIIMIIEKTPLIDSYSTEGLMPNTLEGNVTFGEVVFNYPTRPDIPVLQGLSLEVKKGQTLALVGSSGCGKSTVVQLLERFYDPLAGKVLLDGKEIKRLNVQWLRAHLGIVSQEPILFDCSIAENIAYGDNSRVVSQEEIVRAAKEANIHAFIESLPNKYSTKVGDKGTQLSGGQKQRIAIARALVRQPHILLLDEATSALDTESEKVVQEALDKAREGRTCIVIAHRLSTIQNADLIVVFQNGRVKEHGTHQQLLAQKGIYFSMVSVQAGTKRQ

Structure (SMILES) | efflux ratio at 2 h, 1 µM [1] | IC50 (wild type c-kit) [nM]
COC(=O)N1CC(n2nnc(-c3ccc(C)c(NC(=O)c4cnn5ccc(N6CC7(COC7)C6)cc45)c3)n2)C1 [Example 98, methyl 3-(5-(3-(5-(2-oxa-6-azaspiro[3.3]heptan-6-yl)pyrazolo[1,5-a]pyridine-3-carboxamido)-4-methylphenyl)-2H-tetrazol-2-yl)azetidine-1-carboxylate] | 15.5 | 47.8
CCOC(=O)N1CC(n2nnc(-c3ccc(C)c(NC(=O)c4cnn5ccc(NC)cc45)c3)n2)C1 [Example 126, ethyl 3-(5-(4-methyl-3-(5-(methylamino)pyrazolo[1,5-a]pyridine-3-carboxamido)phenyl)-2H-tetrazol-2-yl)azetidine-1-carboxylate] | 15.9 | 10.3
Cc1ccc(-c2nnn(C3CC(F)(F)C3)n2)cc1NC(=O)c1cnn2ccc(N3CC[C@H](O)C3)cc12 [Example 62, (S)-N-(5-(2-(3,3-difluorocyclobutyl)-2H-tetrazol-5-yl)-2-methylphenyl)-5-(3-hydroxypyrrolidin-1-yl)pyrazolo[1,5-a]pyridine-3-carboxamide] | 11 | 6.1
Cc1ccc(-c2nnn(C(C)C)n2)cc1NC(=O)c1cnn2ccc(-c3cnn(CCO)c3)cc12 [Example 49, 5-(1-(2-hydroxyethyl)-1H-pyrazol-4-yl)-N-(5-(2-isopropyl-2H-tetrazol-5-yl)-2-methylphenyl)pyrazolo[1,5-a]pyridine-3-carboxamide] | 14 | 1.3
Cc1ccc(-c2nnn(C3CN(S(C)(=O)=O)C3)n2)cc1NC(=O)c1cnn2ccc(COCC(F)F)cc12 [Example 154, 5-((2,2-difluoroethoxy)methyl)-N-(2-methyl-5-(2-(1-(methylsulfonyl)azetidin-3-yl)-2H-tetrazol-5-yl)phenyl)pyrazolo[1,5-a]pyridine-3-carboxamide] | 37.6 | 18.8
Cc1nnn(-c2ccc(C)c(NC(=O)c3cnn4ccc(-c5cnn(CCO)c5)cc34)c2)n1 [Example 51, 5-(1-(2-hydroxyethyl)-1H-pyrazol-4-yl)-N-(2-methyl-5-(5-methyl-2H-tetrazol-2-yl)phenyl)pyrazolo[1,5-a]pyridine-3-carboxamide] | 5.5 | 27.4
Cc1ccc(-c2nnn([C@H]3C[C@@H](C(F)(F)F)C3)n2)cc1NC(=O)c1cnn2ccc(N3CCC(C)(O)CC3)cc12 [Example 122, 5-(4-hydroxy-4-methylpiperidin-1-yl)-N-(2-methyl-5-(2-((1s,3s)-3-(trifluoromethyl)cyclobutyl)-2H-tetrazol-5-yl)phenyl)pyrazolo[1,5-a]pyridine-3-carboxamide or 5-(4-hydroxy-4-methylpiperidin-1-yl)-N-(2-methyl-5-(2-((1r,3r)-3-(trifluoromethyl)cyclobutyl)-2H-tetrazol-5-yl)phenyl)pyrazolo[1,5-a]pyridine-3-carboxamide] | 12.8 | 0.6
Cc1cnn(-c2ccc(C)c(NC(=O)c3cnn4ccc(-c5cnn(C[C@H]6CNCCO6)c5)cc34)c2)n1 [Example 205, (R)—N-(2-methyl-5-(4-methyl-2H-1,2,3-triazol-2-yl)phenyl)-5-(1-(morpholin-2-ylmethyl)-1H-pyrazol-4-yl)pyrazolo[1,5-a]pyridine-3-carboxamide] | 33.1 | 
Cc1ccc(-c2nnn(CCOCC(F)(F)F)n2)cc1NC(=O)c1cnn2ccc(-c3cn[nH]c3)cc12 [Example 197, N-(2-methyl-5-(2-(2-(2,2,2-trifluoroethoxy)ethyl)-2H-tetrazol-5-yl)phenyl)-5-(1H-pyrazol-4-yl)pyrazolo[1,5-a]pyridine-3-carboxamide] | 41 | 
